Experimental data: US11583575B2, “MHC-bound peptide arrays and methods of use thereof” (Roche Sequencing Solutions, Inc., priority 2016, dated 2023)

How the values were obtained:
HLA-A2 = HLA-A2 (Homo sapiens, UniProt P04439, D140Y/D185E/D98H/E176V/E277Q/G131W/G231S/I119V/I121R/I166T/I218V/N151K/N90K/P208A/P217A/Q86G/Q94H/R138H/R169H); conditions: binding at pH 6.5 at 4° C. overnight, FIG. 10A/10B
Method: Binding was performed at pH 6.5 at 4° C. overnight.

ESK1 antibody = ESK1 antibody binding specificity to peptide-MHC assemblies for WT1 9mer peptides; conditions: FIG. 7
Source text: Because the array of peptides on the surface is spatially-ordered, the sequence of every peptide is immediately known. Each amino acid of the 9 amino acid peptide was substituted for each of the 20 possible amino acids to identify those positions within this peptide that are essential for forming a proper peptide-MHCI complex. […] The amino acids A, F, I, L, M, V, W and P are nonpolar amino acids. The amino acids G, S, Y, C, Q, T, N are polar amino acids. The amino acids R, K and H are basic amino acids. The amino acids D and E are acidic amino acids.

| Sequence | peptide-MHC assembly signal, negatively charged HEX-asp-3HEX linker versus standard 5HEX linker (HLA-A2) | ESK1 antibody binding specificity (relative fluorescence intensity) (ESK1 antibody) |
| --- | --- | --- |
| RLYDYFTRV | increase in the peptide-MHC assembly signal |  |
| RVPGVAPTL |  | cross-reactive target |
